Test results reported in patent US20250333389A1, “PHARMACEUTICAL FOR THE INHIBITION OF CELLULAR PROTON PUMPS” (AquaRemedi Pharmaceuticals INC, priority 2024, published 2025).
pKi: −log10 of the molar value. “Also recorded” adds a separate entry of the source. Like-named read-outs stand apart in the source and are kept apart here.

Key:
human Hv1 channel [1] = target: T1, human Hv1 channel (Homo sapiens, UniProt Q96D96); assay: Whole cell patch clamp recording of Hv1 proton currents in transfected HEK293T cells; assay type: cell-based; details: calculated as Ki=Koff/Kon, read-out: inhibition constant Ki for Hv1 channels
T1 construct: expressed in transfected cells; host or cells: HEK293T
T1 sequence (Q96D96 1-273): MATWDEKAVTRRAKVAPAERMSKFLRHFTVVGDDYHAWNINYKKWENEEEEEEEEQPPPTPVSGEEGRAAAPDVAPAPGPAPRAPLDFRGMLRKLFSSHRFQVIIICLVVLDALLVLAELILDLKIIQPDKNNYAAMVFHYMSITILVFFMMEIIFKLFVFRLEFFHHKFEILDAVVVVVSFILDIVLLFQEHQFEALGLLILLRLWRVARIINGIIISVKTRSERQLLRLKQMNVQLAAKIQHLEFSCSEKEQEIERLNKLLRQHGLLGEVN

human Hv1 channel [2] = target: T1, human Hv1 channel; assay: as above; assay type: cell-based; details: for V1/2 shift of G-V curve: Boltzmann fit; for pore blocker strength for Hv1 channel (in words): conclusion from patch clamp data
From the text: For conducting experiments, we used HEK293T cells. The HEK293T cells were purchased from American Type Culture Collection (ATCC). For cell culture, the HEK293T cells were maintained in ATTC's Dulbecco's Modified Eagle's Medium (DMEM) supplemented with a 10% fetal bovine serum (FBS 10%) and 1% penicillin and streptomycin. Plasmids were transfected into cells using a transfection reagent, Lipofectamine™ 2000 according to the manufacturer's instructions (Life Technologies). Experiments were performed 24-48 hours post-transfection.
For the experimental studies, similar techniques as utilized by Zhao et. al is used in this invention. (Zhao et al., Role of human Hv1 channels in sperm capacitation and white blood cell respiratory burst established by a designed peptide inhibitor, Proc Natl Acad Sci USA. 2018, PMID: 30478045, PMCID: PMC6294887).
In the present invention, a Whole Cell patch clamp technique was utilized to study the Hv1 proton currents. The proton currents passed by Hv1 were recorded in Whole Cell mode using an Axon™ Axopatch™ 200B microelectrode amplifier. Stimulation and data collection were performed by a high-resolution, low-noise digitizer, Digidata 1322A, manufactured by Axon Instruments, Inc.) and Axon™ pCLAMP™ 10 Electrophysiology Data Acquisition & Analysis Software (released by Molecular Devices). Cells were perfused with an external bath solution comprised of a zwitterionic sulfonic acid buffering agent (100 mM HEPES), 100 mM NaCl, and 10 mM glucose at pH 7.5. During the patch clamp recording, the patch pipettes with a resistance between 3 and 5 MΩ were filled with 100 mM Bis-Tris buffer, 100 mM NaCl, and 10 mM glucose at pH 6.0. The sampling frequency was 10 kHz and the signals were filtered at 1 KHz.
Fractional unblocked current was assessed at the end of the test pulse.
Dose-response curves (the time course for block and unblock of Hv1 as shown in FIG. 9) show the fractional unblocked current, Icompound/Icontrol, versus toxin concentration. The curves were fit to the Hill equation, Fun=(1+([compound]/Ki)h)−1), wherein the [compound] is the effective compound concentration, Fun is the fraction of unblocked current at equilibrium. Ki is the inhibition constant and h is the Hill coefficient.

[3] = 100 nM compound, at −20 mV, holding −60 mV

| pKi (human Hv1 channel [1]) | V1/2 shift of G-V curve (human Hv1 channel [2]; 10 μM compound, shift to the left) | block of Hv1 current (human Hv1 channel [2]; 10 μM compound, at −20 mV, holding −60 mV) | pore blocker strength for Hv1 channel (in words) (human Hv1 channel [2]) | pKi (human Hv1 channel [1]; I-V plot, −20 mV) | time course of block (washin) (human Hv1 channel [2]; 100 nM applied to Hv1 channels) | V1/2 shift of G-V curve (human Hv1 channel [2]; 100 nM compound) | block of Hv1 channel current (human Hv1 channel [2]; [3]) | time course of unblock (washout) (human Hv1 channel [2]; washed away with isotonic saline) | Structure (SMILES) |
| --- | --- | --- | --- | --- | --- | --- | --- | --- | --- |
| 5.52 | ~15 mV | 20% | weak pore blocker |  |  |  |  |  | C=C[C@@H]1CS[C@H](c2ccccc2)N1C(=O)OC(C)(C)C [Original Compound, (2R,4R)-tert-butyl 2Phenyl-4-vinylthiazolidine-3-carboxylate] |
|  |  |  | strong nano-molar pore blocker | 7.70 |  | about 35 mV | 85% |  | O=C(O)[C@@H]1CS[C@H](c2ccccc2)N1 [S2, (2R,4R)-2-phenylthiazolidine-4-carboxylic acid] |

| Structure (SMILES) | pKi (human Hv1 channel [1]) | V1/2 shift of G-V curve (human Hv1 channel [2]; 10 μM compound, shift to the left) | block of Hv1 current (human Hv1 channel [2]; 10 μM compound, at −20 mV, holding −60 mV) | pore blocker strength for Hv1 channel (in words) (human Hv1 channel [2]) | pKi (human Hv1 channel [1]; I-V plot, −20 mV) | time course of block (washin) (human Hv1 channel [2]; 100 nM applied to Hv1 channels) | V1/2 shift of G-V curve (human Hv1 channel [2]; 100 nM compound) | block of Hv1 channel current (human Hv1 channel [2]; [3]) | time course of unblock (washout) (human Hv1 channel [2]; washed away with isotonic saline) |
| --- | --- | --- | --- | --- | --- | --- | --- | --- | --- |
| CC(C)(C)OC(=O)N1[C@H](CO)CS[C@@H]1c1ccccc1 [S1, (2R,4R)-tert-butyl 4-(hydroxymethyl)-2-Phenylthiazolidine-3-carboxylate] |  |  |  | strong nano-molar pore blocker; also recorded: relatively strong pore blocker | 8.52 | blocks the channel current immediately | about 41 mV | 92% | the current resumes |
